Measured values published in BindingDB's records for doi:10.1016/j.bmcl.2008.08.095 (Sunesis Pharmaceuticals, 2008).

Biological target: Focal adhesion kinase 1 (Homo sapiens, UniProt Q05397)
Sequence (Q05397 whole entry): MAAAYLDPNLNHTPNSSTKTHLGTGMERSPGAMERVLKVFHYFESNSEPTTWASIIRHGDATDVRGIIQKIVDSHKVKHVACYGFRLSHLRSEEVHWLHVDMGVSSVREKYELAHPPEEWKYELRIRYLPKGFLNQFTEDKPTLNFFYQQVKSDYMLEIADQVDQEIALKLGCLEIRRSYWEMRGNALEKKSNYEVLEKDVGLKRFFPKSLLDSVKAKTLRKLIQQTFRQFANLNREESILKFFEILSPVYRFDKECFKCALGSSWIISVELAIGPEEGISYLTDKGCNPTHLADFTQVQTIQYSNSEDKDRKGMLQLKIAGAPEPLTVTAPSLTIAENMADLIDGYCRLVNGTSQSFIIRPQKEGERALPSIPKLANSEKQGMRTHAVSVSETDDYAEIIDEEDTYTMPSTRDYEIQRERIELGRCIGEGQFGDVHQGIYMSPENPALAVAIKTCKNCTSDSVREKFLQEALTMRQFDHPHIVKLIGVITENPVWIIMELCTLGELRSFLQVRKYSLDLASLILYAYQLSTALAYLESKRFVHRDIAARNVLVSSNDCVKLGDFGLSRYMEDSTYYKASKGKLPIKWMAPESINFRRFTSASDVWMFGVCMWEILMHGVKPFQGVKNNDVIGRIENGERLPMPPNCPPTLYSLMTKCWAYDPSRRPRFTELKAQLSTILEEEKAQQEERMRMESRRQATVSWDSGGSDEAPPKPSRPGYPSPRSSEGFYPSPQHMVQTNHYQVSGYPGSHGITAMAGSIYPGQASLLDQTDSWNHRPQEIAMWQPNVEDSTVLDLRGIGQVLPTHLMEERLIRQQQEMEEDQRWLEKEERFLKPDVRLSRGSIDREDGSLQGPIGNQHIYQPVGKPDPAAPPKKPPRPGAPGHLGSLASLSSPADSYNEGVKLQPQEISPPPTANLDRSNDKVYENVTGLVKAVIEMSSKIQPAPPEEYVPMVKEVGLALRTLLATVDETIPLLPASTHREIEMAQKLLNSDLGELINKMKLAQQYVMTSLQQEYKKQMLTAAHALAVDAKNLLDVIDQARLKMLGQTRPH

Structure (SMILES): Cc1nn(-c2cc(Cl)cc(CCC(N)=O)c2)c2cc(N[C@@H](C)c3ccccc3)ncc12 [3-[3-chloro-5-(3-methyl-6-{[(1S)-1-phenylethyl]amino}-1H-pyrazolo[4,3-c]pyridin-1-yl)phenyl]propanamide]
- IC50: 7.46 µM

Structure (SMILES): CC(=O)Nc1ccccc1-c1cc(Cl)cc(-n2nc(C)c3cnc(N[C@@H](C)c4ccccc4)cc32)c1 [N-{2-[3-chloro-5-(3-methyl-6-{[(1S)-1-phenylethyl]amino}-1H-pyrazolo[4,3-c]pyridin-1-yl)phenyl]phenyl}acetamide]
- IC50: 6.28 µM
